Source: article PMC13576449, “Small-Molecule Activators of PRMT1: Discovery, SAR Analyses, and Proapoptotic Effects in Pancreatic Cancer Cells” (Journal of Medicinal Chemistry, 2026)

target: T1, FLAG-tagged PRMT1 (Rattus norvegicus, UniProt Q63009); experiment: Fluorescence-based in vitro PRMT assay (F-PRMT assay), PRMT1; format: biochemical; details: 100 μM compound
T1 construct: Full-length FLAG-tagged PRMT protein; made in house; host or cells: Sf9 insect cells (baculovirus)
T1 sequence (Q63009 whole entry): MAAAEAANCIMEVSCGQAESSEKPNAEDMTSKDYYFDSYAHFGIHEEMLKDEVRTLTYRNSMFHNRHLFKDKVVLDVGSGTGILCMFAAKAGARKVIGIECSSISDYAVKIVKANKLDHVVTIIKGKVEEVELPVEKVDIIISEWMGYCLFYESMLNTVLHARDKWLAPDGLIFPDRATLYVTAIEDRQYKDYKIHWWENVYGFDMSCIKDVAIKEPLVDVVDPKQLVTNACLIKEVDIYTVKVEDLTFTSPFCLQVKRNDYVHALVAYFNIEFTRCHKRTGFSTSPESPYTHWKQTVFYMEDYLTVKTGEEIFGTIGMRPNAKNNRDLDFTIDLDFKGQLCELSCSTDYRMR

| effect on PRMT1 activity (in words) | Compound |
| --- | --- |
| no effect | CN(C)c1ccccc1N/C=C1\C(=O)NC(=O)c2ccccc21 [ICTR-015] |
| no effect | Nc1ccccc1N/C=C1\C(=O)NC(=O)c2ccccc21 [ICTR-019] |
| no effect or a modest activating effect | CN(C)c1ccccc1CN/C=C1\C(=O)NC(=O)c2ccccc21 [ICTR-052] |
| no effect | CCN(CC)c1ccccc1N/C=C1\C(=O)NC(=O)c2ccccc21 [ICTR-060] |
| reduced activating effect | CN(C)Cc1ccccc1CN/C=C1\C(=O)NC(=O)c2ccccc21 [ICTR-063] |
| no effect | CC(C)Cc1ccc(N/C=C2\C(=O)NC(=O)c3ccccc32)cc1 [ICTR-076] |
| significantly increased PRMT1 activity | CCN(CC)Cc1cccc(-c2ccc3[nH]c(=O)c4ccccc4c3c2)c1 [ICTR-096] |
| no effect or a modest activating effect | C[N+](C)(C)Cc1cccc(CN/C=C2\C(=O)NC(=O)c3ccccc32)c1.[I-] [ICTR-108] |
| no significant effect | CCN(CC)Cc1ccccc1CN/C=C1\C(=O)NC(=O)c2ccccc21 [ICTR-119] |
| equal | CN(C)Cc1ccccc1N/C=C1\C(=O)NC(=O)c2ccccc21 [TR-022] |
| no significant effect | O=C1NC(=O)c2ccccc2/C1=C/Nc1ccccn1 [TR-030, (Z)-4-[(Pyridin-2-ylamino)methylene]isoquinoline-1,3(2H,4H)-dione] |
| no significant effect | O=C1NC(=O)c2ccccc2C1=CNc1cccnc1 [TR-031] |
| strong inhibitory effect | O=C1NC(=O)c2ccccc2C1=CNc1cccc(CN2CCOCC2)c1 [TR-038] |

| Compound | effect on PRMT1 activity (in words) |
| --- | --- |
| O=C1NC(=O)c2ccccc2C1=CNc1ccccc1Cn1cccc1 [ICTR-036] | no significant or minimal inhibitory activity |
| O=C1NC(=O)c2ccccc2C1=CNc1ccccc1Cn1cncn1 [ICTR-042] | no significant or minimal inhibitory activity |
| CCN(CC)Cc1ccccc1-c1ccc2[nH]c(=O)c3ccccc3c2c1 [ICTR-094] | significantly lower activation of PRMT1 compared to TR-07 |
| CN(C)CCCN/C=C1\C(=O)NC(=O)c2ccccc21 [TR-018, (Z)-4-({[3-(Dimethylamino)propyl]amino}methylene)isoquinoline-1,3(2H,4H)-dione] | activated PRMT1 in a significant manner, albeit to a considerably lesser extent than TR-07 |
| O=C1NC(=O)c2ccccc2C1=CNCc1cccnc1 [TR-032] | activated PRMT1 in a significant manner, albeit to a considerably lesser extent than TR-07 |

same assay, conditions: 100 μM compound, increase over solvent-treated activity; read-out: enhancement (increase) of PRMT1 enzymatic activity

| activation at 100 µM | Compound |
| --- | --- |
| ≥ 60% | CCN(CC)Cc1cccc(-c2ccc3[nH]c(=O)c4ccccc4c3c2)c1 [ICTR-096] |
| ≥ 60% | CN(C)Cc1ccc(N/C=C2\C(=O)NC(=O)c3ccccc32)cc1 [TR-021] |

target: T2, FLAG-tagged PRMT4 (Mus musculus, UniProt Q9WVG6); experiment: Fluorescence-based in vitro PRMT assay (F-PRMT assay), PRMT4; format: biochemical; details: Table S2; 100 µM compound, vs solvent control = 100%, n=3; racemates used
T2 construct: Full-length FLAG-tagged PRMT protein; made in house; host or cells: Sf9 insect cells (baculovirus)
T2 sequence (Q9WVG6 1-608): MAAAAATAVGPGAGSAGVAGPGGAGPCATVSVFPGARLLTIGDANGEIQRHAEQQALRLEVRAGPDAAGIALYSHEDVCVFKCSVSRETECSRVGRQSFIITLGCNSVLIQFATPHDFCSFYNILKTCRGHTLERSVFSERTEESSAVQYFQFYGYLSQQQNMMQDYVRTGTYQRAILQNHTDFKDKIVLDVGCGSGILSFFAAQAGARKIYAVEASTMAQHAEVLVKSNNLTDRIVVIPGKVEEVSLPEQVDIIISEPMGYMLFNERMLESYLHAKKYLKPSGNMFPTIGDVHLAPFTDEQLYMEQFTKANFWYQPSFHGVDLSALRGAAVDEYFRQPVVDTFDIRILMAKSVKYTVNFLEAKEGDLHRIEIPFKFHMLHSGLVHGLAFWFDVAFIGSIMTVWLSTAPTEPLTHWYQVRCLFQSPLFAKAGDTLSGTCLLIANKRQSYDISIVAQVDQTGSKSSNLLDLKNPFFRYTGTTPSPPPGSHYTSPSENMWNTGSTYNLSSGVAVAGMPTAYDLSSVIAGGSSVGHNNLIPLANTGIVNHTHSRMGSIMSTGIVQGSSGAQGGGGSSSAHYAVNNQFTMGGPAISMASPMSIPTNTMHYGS
Description: (§1) To evaluate the effects of the selected candidate molecules on the catalytic activity of type I enzymes, we employed a quantitative fluorescence-based in vitro PRMT activity (F-PRMT) assay using recombinant FLAG-tagged PRMT proteins expressed and affinity-purified from baculovirus-infected Sf9 cells (SI Figure S1, SI Figure S2A).
(§2) Human cell lines (PaTu8988T, PANC-1) were obtained from ATCC (American Type Culture Collection) and cultured in DMEM supplemented with 10% fetal calf serum (FCS, Gibco/BRL), 1% penicillin/streptomycin at 37 °C and 5% CO2. […] For PRMT1 inhibition, cells were treated with type I PRMT inhibitor MS023 hydrochloride (Biomol). For induction of genotoxic stress, cells were treated with gemcitabine (LC Laboratories). […] The following plasmids were used: pFASTBAC-FLAG-rat PRMT1, pFASTBAC-FLAG-mouse PRMT4, and pGEX-GAR. The complete ORFs of human PRMT3 and PRMT6 were inserted into the pFASTBAC HT-3xFLAG B vector via BamHI/HindIII and BamHI/XhoI sites, respectively.
(§3) For PRMT protein expression in insect cells, recombinant baculovirus (bacmid) was generated using the Bac-to-Bac baculovirus system (Invitrogen). Sf9 cells were transfected with bacmid DNA using X-tremeGENE HP DNA transfection reagent (Sigma-Aldrich) according to the manufacturer's instructions. After 3–5 days, supernatants were collected, filtered, and used to infect Sf9 cells to amplify the virus. After 2 rounds of virus amplification and estimation of the final P3 virus titer, the P3 virus (2–5 μL/10^6 cells) was applied for large-scale infection of 200 × 10^6 Sf9 cells in suspension culture at a density of 1 × 10^6 cells/mL. Cells were harvested 5–6 days post-infection by centrifugation at 500 g for 5 min at room temperature. Protein purification from baculovirus-infected Sf9 cells was performed as previously described. , Cells were lysed in BC buffer (20 mM HEPES pH 7.9, 250 mM NaCl, 10% (v/v) glycerin, 0.4 mM EDTA, 1 mM DTT) containing a protease inhibitor cocktail (Roche) by 3 freeze-thaw cycles. After centrifugation at 11,000 rpm (Sorval SS34 rotor) and 4 °C for 1 h, the supernatant (whole cell protein extract) was incubated with anti-FLAG M2 Affinity Gel (Cytiva) at 4 °C and under agitation for 4 h. Subsequently, beads were washed in BC buffer containing various NaCl concentrations (once in BC with 1 M NaCl, twice in BC with 500 mM NaCl, twice in BC with 250 mM NaCl and twice in BC with 100 mM NaCl). FLAG-tagged proteins were either maintained bead-bound as a 50% (v/v) slurry in BC buffer with 100 mM NaCl and stored at −80 °C or were eluted in the appropriate elution buffer (depending on the subsequent assay) containing 0.25 mg/mL 3xFLAG peptides (Sigma-Aldrich) at 4 °C for 30–45 min. To remove the FLAG-peptides from the eluate, dialysis was performed in elution buffer containing 10% (v/v) glycerol at 4 °C for 4–6 h using Slide-A-Lyzer Dialysis Devices (Thermo Fisher Scientific) according to the manufacturer’s recommendations.
(§4) In the first step, the fluorogenic substrate Nα-Benzoyl-L-arginine-7-amido-4-methylcoumarin (Bz-Arg-AMC, Sigma-Aldrich) undergoes methylation by PRMTs upon the addition of the cofactor SAM. In the second reaction step, trypsin cleaves the nonmethylated substrate, leading to the generation of the 7-amino-4-methylcoumarin product, which can be quantified by subsequent fluorescence measurement (excitation: 355 nm, emission: 460 nm). The first reaction was conducted with bead-bound PRMTs at a total volume of 100 μL. Each condition was performed as a technical triplicate to determine the mean and the standard deviation. […] For the negative controls, SAM was substituted with assay buffer. The incubation was continued at 37 °C and under agitation (1,000 rpm) for a duration of 2 h.

| Compound | Experimental result (PRMT4) |
| --- | --- |
| Cc1nc([C@@H](O)Cc2ccccc2)n(CCc2cnc[nH]2)n1 (racemic) [Compound K001FT007] | n.e. (did not significantly affect the catalytic activity of the intended PRMT (less than ±6% change or not significant p-value), are marked with n.e. (no effect)) |
| CC[C@H](NC(=O)c1cccc(Cn2cccn2)c1)c1nc(C)c[nH]1 (racemic) [Compound K001FT009] | n.e. (did not significantly affect the catalytic activity of the intended PRMT (less than ±6% change or not significant p-value), are marked with n.e. (no effect)) |
| OCCNC[C@@H](O)COc1ccccc1 (racemic) [Compound K001JS001] | n.e. (did not significantly affect the catalytic activity of the intended PRMT (less than ±6% change or not significant p-value), are marked with n.e. (no effect)) |
| O[C@H](CNCc1ccco1)COc1ccc2ccccc2c1 (racemic) [Compound K001JS002] | n.e. (did not significantly affect the catalytic activity of the intended PRMT (less than ±6% change or not significant p-value), are marked with n.e. (no effect)) |
| CNC(=O)COc1ccc(NC(=O)[C@@H]2NC[C@@H]3C[C@@H]32)cc1 (racemic) [Compound K400JK006] | n.e. (did not significantly affect the catalytic activity of the intended PRMT (less than ±6% change or not significant p-value), are marked with n.e. (no effect)) |
| C#CCNCC(=O)Nc1ccc([C@@H]2C[C@H]2N)cc1 (racemic) [Compound K400JK009] | n.e. (did not significantly affect the catalytic activity of the intended PRMT (less than ±6% change or not significant p-value), are marked with n.e. (no effect)) |
| CNC(=O)Cn1cc(NC(=O)[C@@H]2CC[C@@H]2N)cn1 (racemic) [Compound K400JK012] | n.e. (did not significantly affect the catalytic activity of the intended PRMT (less than ±6% change or not significant p-value), are marked with n.e. (no effect)) |
| CNCCCc1ncc(-c2ccccc2Br)[nH]1 [Compound K001FT002] | n.e. (did not significantly affect the catalytic activity of the intended PRMT (less than ±6% change or not significant p-value), are marked with n.e. (no effect)) |
| N=C(N)NCCCc1ccccc1Br [Compound K001FT004] | n.e. (did not significantly affect the catalytic activity of the intended PRMT (less than ±6% change or not significant p-value), are marked with n.e. (no effect)) |

same assay, conditions: Table S2; 100 µM compound; mean % difference vs solvent control (100%), n=3

| Efficacy ±∆% (PRMT4) | Compound |
| --- | --- |
| -50% | NCCNC[C@@H](O)COc1ccc(Cl)c(Cl)c1 (racemic) [Compound K001FT003] |

target: T3, FLAG-tagged PRMT6 (Homo sapiens, UniProt Q96LA8); experiment: Fluorescence-based in vitro PRMT assay (F-PRMT assay), PRMT6; format: biochemical; details: Table S2; 100 µM compound, vs solvent control = 100%, n=3; racemates used
T3 construct: The complete ORFs of human PRMT3 and PRMT6 were inserted; made in house; host or cells: Sf9 insect cells (baculovirus)
Description: as §1, §2, §3, §4

T3 sequence (Q96LA8 whole entry): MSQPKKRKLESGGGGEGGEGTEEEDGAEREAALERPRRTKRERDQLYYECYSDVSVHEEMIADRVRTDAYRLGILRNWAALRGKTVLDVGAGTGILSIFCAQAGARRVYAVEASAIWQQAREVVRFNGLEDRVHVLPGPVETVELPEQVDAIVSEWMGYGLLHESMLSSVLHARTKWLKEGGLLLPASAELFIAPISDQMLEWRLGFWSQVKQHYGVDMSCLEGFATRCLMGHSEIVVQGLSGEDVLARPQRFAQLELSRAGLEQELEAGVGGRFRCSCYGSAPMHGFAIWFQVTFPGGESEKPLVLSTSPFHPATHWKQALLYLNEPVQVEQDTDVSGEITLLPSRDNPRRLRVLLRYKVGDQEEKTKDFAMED

| Compound | Experimental result (PRMT6) |
| --- | --- |
| CCN(CC(=O)NCCc1cccc(Cl)c1)C1CNC1 [Compound K600JK006] | n.e. (did not significantly affect the catalytic activity of the intended PRMT (less than ±6% change or not significant p-value), are marked with n.e. (no effect)) |
| CC(C)N(CCCOCc1ccccc1)CC(=N)NO [Compound K600JK007] | n.e. (did not significantly affect the catalytic activity of the intended PRMT (less than ±6% change or not significant p-value), are marked with n.e. (no effect)) |
| CC(C)(C)c1cccc(OCCNC2CC(CN)C2)c1 (stereo not drawn) [Compound K600JK008] | n.e. (did not significantly affect the catalytic activity of the intended PRMT (less than ±6% change or not significant p-value), are marked with n.e. (no effect)) |
